ChEMBL document CHEMBL5233262, “Anti-inflammatory activity of naturally occuring diarylheptanoids - A review” (Bioorg Med Chem, 2021)
Values belong to the molecule of their own block, whether it stands above or below them.

Experiments:
RAW264.7 [1] = assay: Antiinflammatory activity in mouse RAW264.7 cells assessed as inhibition of LPS-induced NO production at 10 ug/ml incubated for 20 hrs by Griess reagent based microplate reader analysis; type: functional
RAW264.7 [2] = assay: Antiinflammatory activity in mouse RAW264.7 cells assessed as inhibition of LPS-induced NO production incubated for 20 hrs by Griess reagent based microplate reader analysis; type: functional, cell-based; details: RAW264.7, 20 h
Rattus norvegicus [3] = assay: Antiinflammatory activity in rat model of ethyl phenylpropiolate-induced ear edema assessed as reduction in ear thickness administered topically and measured after 30 mins; type: functional; details: 0.5 h
Rattus norvegicus [4] = assay: Antiinflammatory activity in rat model of ethyl phenylpropiolate-induced ear edema assessed as reduction in ear thickness administered topically and measured after 1 hr; type: functional
Rattus norvegicus [5] = assay: Antiinflammatory activity in rat model of ethyl phenylpropiolate-induced ear edema assessed as 30% reduction in ear thickness administered topically and measured after 30 mins; type: functional; details: 0.5 h
Rattus norvegicus [6] = assay: Antiinflammatory activity in rat model of ethyl phenylpropiolate-induced ear edema assessed as 30% reduction in ear thickness administered topically and measured after 1 hr; type: functional
RAW264.7 [7] = assay: Antiinflammatory activity in mouse RAW264.7 cells assessed as inhibition of LPS-induced NO production by Griess method; type: functional, cell-based
RAW264.7 [8] = assay: Antiinflammatory activity in mouse RAW264.7 cells assessed as inhibition of LPS-induced NO production at 30 uM preincubated for 0.5 hrs followed by LPS stimulation and measured after 24 hrs by Griess reagent based analysis; type: functional; details: time 24.5 hrs
J774.A1 = assay: Antiinflammatory activity in mouse J774.A1 cells assessed as inhibition of LPS-induced NO production incubated for 24 hrs by Griess reagent based analysis; type: functional, cell-based; details: J774.A1, 24 h
Mus musculus = assay: Antiinflammatory activity in ICR mouse model of TPA-induced ear edema assessed as inhibition of ear inflammation at 1 mg,TOP for 30 mins followed by TPA addition and measured after 6 hrs; type: functional; details: time 390 min, 6.5 h
[9] = Antioxidant activity assessed as DPPH radical scavenging activity incubated for 30 mins by spectrophotometric analysis; type: functional
[10] = Antioxidant activity assessed as nitroblue tetrazolium superoxide radical scavenging activity by spectrophotometric analysis; type: functional
[11] = Antioxidant activity assessed as nitroblue tetrazolium superoxide radical scavenging activity incubated for 10 mins by spectrophotometric analysis; type: functional
RAW264.7 [12] = assay: Antiinflammatory activity in mouse RAW264.7 cells assessed as inhibition of LPS-induced NO production preincubated for 1 hrs followed by LPS stimulation and measured after 24 hrs by Griess reagent based analysis; type: functional, cell-based
RAW264.7 [13] = assay: Antiinflammatory activity in mouse RAW264.7 cells assessed as inhibition of LPS-induced NO production incubated for 24 hrs by Griess method; type: functional, cell-based; details: RAW264.7, 24 h
RAW264.7 [14] = assay: Antiinflammatory activity in mouse RAW264.7 cells assessed as inhibition of LPS-induced NO production incubated for 20 hrs by Griess method; type: functional, cell-based; details: RAW264.7, 20 h
RAW264.7 [15] = assay: Antiinflammatory activity in mouse RAW264.7 cells assessed as inhibition of LPS-induced NO production incubated for 18 hrs by Griess method; type: functional, cell-based; details: RAW264.7, 18 h
Rattus norvegicus [16] = assay: Antiinflammatory activity in rat model of carrageenan-induced hind paw edema assessed as reduction in paw thickness at 100 mg/kg,ip 30mins before carrageenin exposure and measured after 3 hrs; type: functional; set-up: scale not given: the % may be the effect or the level left

- IC50 (RAW264.7 [2]): > 30 µM
SMILES: COc1cc(CCC(=O)CC(O)CCc2ccc(O)c(OC)c2)ccc1O (stereo not drawn) [HEXAHYDROCURCUMIN]
- inhibition at 10 µg/mL (RAW264.7 [1]): 32%

SMILES: CCCCC1C(=O)N(c2ccccc2)N(c2ccc(O)cc2)C1=O (stereo not drawn) [OXYPHENBUTAZONE ANHYDROUS]
- ID50 (Rattus norvegicus [3]): 12 µg
- ID50 (Rattus norvegicus [4]): 46 µg
- ID30 (Rattus norvegicus [5]): 0.2 µg
- ID30 (Rattus norvegicus [6]): 0.3 µg

- IC50 (RAW264.7 [7]): 38.9 µM
SMILES: COc1cc(C(=O)[C@@H](O)[C@@H]2CCC[C@H](c3ccc(O)c(OC)c3)O2)ccc1O

- IC50 (RAW264.7 [7]): > 100 µM
SMILES: COc1cc(C[C@H]2O[C@@H](CC(=O)c3ccc(O)c(OC)c3)C[C@H]2O)ccc1O

- IC50 (J774.A1): 100 µM
SMILES: OC[C@H]1O[C@@H](O[C@H](CCCCc2ccc(O)cc2)CCc2ccc(O)cc2)[C@H](O)[C@@H](O)[C@@H]1O
- inhibition at 30 µM (RAW264.7 [8]): 24%
- ID50 (Mus musculus): 0.66 mg

- IC50 (RAW264.7 [2]): > 30 µM
SMILES: COc1cc(CCC(O)CC(O)CCc2ccccc2)ccc1O (stereo not drawn)
- inhibition at 10 µg/mL (RAW264.7 [1]): 27%

- IC50 [9]: 20.1 µM
- IC50 [10]: 30.1 µM
- IC50 [11]: 12.7 µM
- IC50 (RAW264.7 [12]): 6.6 µM
- IC50 (RAW264.7 [13]): 22.7 µM
- IC50 (RAW264.7 [14]): 2.6 µM
- IC50 (RAW264.7 [15]): 16.8 µM
SMILES: O=C(CCCCc1ccc(O)c(O)c1)CCc1ccc(O)c(O)c1

SMILES: OC(CC/C=C/c1ccccc1)CCc1ccccc1 (stereo not drawn)
- Activity (Rattus norvegicus [16]): 30%
- ID30 (Rattus norvegicus [5]): 35 µg
- ID30 (Rattus norvegicus [6]): 28 µg
